Measured values as given in ChEMBL document CHEMBL3885861, “Open TG-GATES”.

Species on record: Rattus norvegicus
Experiment: Open TG-GATES - Regimen: Single
Assay type: toxicity, organism-based, Sprague-Dawley
Parameters: regimen Single, gender Male, age 6 weeks
Conditions: in vivo, iv, 0 mg/kg, route intravenous injection, dose level Control; for APTT / Bas / Eos / Fbg / Hb / Ht / Lym / MCH / MCHC / MCV / Mono / PT / Plat / RBC / Ret / WBC: tissue Blood; for KIDNEY_L / KIDNEY_R / KIDNEY_TOTAL: tissue Kidney; for LIVER: tissue Liver; for ALP / ALT / AST / BUN / CRE / Ca / Cl / DBIL / GLC / IP / K / LDH / Na / PL / RALB / TBIL / TC / TG / TP / gamma-GTP: tissue Plasma

`CC(=O)OCC1=C(C(=O)O)N2C(=O)[C@@H](NC(=O)Cc3cccs3)[C@H]2SC1` [CEPHALOTHIN] gave a TERMINAL_BW (9 h) of 217.3 g, an APTT (9 h) of 23.9 s and a Bas (9 h) of 0%. For the same compound, the Eos (9 h) was 1%, the Fbg (9 h) was 305.4 mg/dL and the Hb (9 h) was 13.5 g/dL. For the same compound, the Ht (9 h) was 39.5%, the Lym (9 h) was 81.4% and the MCH (9 h) was 21 pg. For the same compound, the MCHC (9 h) was 34%, the MCV (9 h) was 61.6 fL and the Mono (9 h) was 2%. It also gave a PT (9 h) of 15.7 s, a Plat (9 h) of 132.6 x10_4/uL and an RBC (9 h) of 641.6 x10_4/ul. It also gave a Ret (9 h) of 6.4%, a WBC (9 h) of 93.1 x10_2/uL and a KIDNEY_L (9 h) of 0.9 g. It also gave a KIDNEY_R (9 h) of 1 g, a KIDNEY_TOTAL (9 h) of 1.9 g and an LIVER (9 h) of 9 g. The ALP (9 h) was 1321.4 IU/L, the ALT (9 h) was 37.2 IU/L and the AST (9 h) was 81.2 IU/L. The BUN (9 h) was 9.2 mg/dL, the CRE (9 h) was 0.2 mg/dL and the Ca (9 h) was 10.4 mg/dL. The Cl (9 h) was 106.2 meq/L, the DBIL (9 h) was 0 mg/dL and the GLC (9 h) was 186.6 mg/dL. It also gave an IP (9 h) of 9.6 mg/dL, a K (9 h) of 4.3 meq/L and an LDH (9 h) of 157.4 IU/L. It also gave a Na (9 h) of 141.6 meq/L, a PL (9 h) of 121.8 mg/dL and an RALB (9 h) of 2.9 g/dL. For the same compound, the TBIL (9 h) was 0.022 mg/dL, the TC (9 h) was 67.4 mg/dL and the TG (9 h) was 60 mg/dL. It also gave a TP (9 h) of 5.3 g/dL, a gamma-GTP (9 h) of 1.2 IU/L and a TERMINAL_BW (24 h) of 225.8 g. For the same compound, the APTT (24 h) was 21 s, the Bas (24 h) was 0% and the Eos (24 h) was 0.8%. It also gave a Fbg (24 h) of 302.4 mg/dL, a Hb (24 h) of 12.9 g/dL and a Ht (24 h) of 37.9%. For the same compound, the Lym (24 h) was 79.2%, the MCH (24 h) was 21.2 pg and the MCHC (24 h) was 33.9%. The MCV (24 h) was 62.3 fL, the Mono (24 h) was 2.4% and the PT (24 h) was 16.5 s. It also gave a Plat (24 h) of 128.1 x10_4/uL, an RBC (24 h) of 607.2 x10_4/ul and a Ret (24 h) of 6.3%. It also gave a WBC (24 h) of 89.6 x10_2/uL, a KIDNEY_L (24 h) of 1 g and a KIDNEY_R (24 h) of 1 g. The KIDNEY_TOTAL (24 h) was 1.9 g, the LIVER (24 h) was 10.8 g and the ALP (24 h) was 1398.6 IU/L. The ALT (24 h) was 44.4 IU/L, the AST (24 h) was 76.2 IU/L and the BUN (24 h) was 17.2 mg/dL. For the same compound, the CRE (24 h) was 0.2 mg/dL, the Ca (24 h) was 10.9 mg/dL and the Cl (24 h) was 105.8 meq/L. The DBIL (24 h) was 0 mg/dL, the GLC (24 h) was 189.4 mg/dL and the IP (24 h) was 7.3 mg/dL. The K (24 h) was 4.5 meq/L, the LDH (24 h) was 221 IU/L and the Na (24 h) was 142.4 meq/L. It also gave a PL (24 h) of 145.8 mg/dL, an RALB (24 h) of 3 g/dL and a TBIL (24 h) of 0.012 mg/dL. It also gave a TC (24 h) of 74.4 mg/dL, a TG (24 h) of 74.6 mg/dL and a TP (24 h) of 5.5 g/dL. The gamma-GTP (24 h) was 1.4 IU/L.
